Data: the supplement of paper PMC10307832

What was measured:
Test in all cases: relative viability (nuclei count vs DMSO), 5 days (fraction); higher = more cells survive
[1] = compound: CN(c1ncccc1CNc1nc(Nc2ccc3c(c2)CC(=O)N3)ncc1C(F)(F)F)S(C)(=O)=O + CS(=O)(=O)CCNCc1ccc(-c2ccc3ncnc(Nc4ccc(OCc5cccc(F)c5)c(Cl)c4)c3c2)o1 [Lapatinib] (partner 2 µM)
Outline: (§1)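 Values are medians from duplicate plates. Each reflects relative viability, defined as the nuclei count of treated wells over that of vehicle wells. Lung cancer cell lines in 1536-well plates were pin-tool dosed one day after seeding with one drug alone or with a fixed anchor-drug dose plus five library-drug doses (not always all listed) in √10 steps, then fixed, stained and imaged at 4× after 5 days.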

[2] = compound: CN(c1ncccc1CNc1nc(Nc2ccc3c(c2)CC(=O)N3)ncc1C(F)(F)F)S(C)(=O)=O + C[C@@H](Oc1cc(-c2cnn(C3CCNCC3)c2)cnc1N)c1c(Cl)ccc(F)c1Cl [Crizotinib] (partner 1 µM)
Outline: as §1

[3] = compound: CN(c1ncccc1CNc1nc(Nc2ccc3c(c2)CC(=O)N3)ncc1C(F)(F)F)S(C)(=O)=O + Cc1cc(Nc2cc(N3CCN(C)CC3)nc(Sc3ccc(NC(=O)C4CC4)cc3)n2)n[nH]1 [Tozasertib] (partner 0.1 µM)
Outline: as §1

[4] = compound: CN(c1ncccc1CNc1nc(Nc2ccc3c(c2)CC(=O)N3)ncc1C(F)(F)F)S(C)(=O)=O + Nc1ncn([C@H]2C[C@H](O)[C@@H](CO)O2)c(=O)n1 [Decitabine] (partner 2 µM)
Outline: as §1

Row | Cell Line | relative viability ([1]; first compound 0.01 µM) | relative viability ([1]; first compound 0.03162 µM) | relative viability ([1]; first compound 0.1 µM) | relative viability ([1]; first compound 0.3162 µM) | relative viability ([1]; first compound 1 µM) | relative viability ([2]; first compound 0.01 µM) | relative viability ([2]; first compound 0.03162 µM) | relative viability ([2]; first compound 0.1 µM) | relative viability ([2]; first compound 0.3162 µM) | relative viability ([2]; first compound 1 µM) | relative viability ([3]; first compound 0.01 µM) | relative viability ([3]; first compound 0.03162 µM) | relative viability ([3]; first compound 0.1 µM) | relative viability ([3]; first compound 0.3162 µM) | relative viability ([3]; first compound 1 µM) | relative viability ([4]; first compound 0.01 µM) | relative viability ([4]; first compound 0.03162 µM) | relative viability ([4]; first compound 0.1 µM) | relative viability ([4]; first compound 0.3162 µM) | relative viability ([4]; first compound 1 µM)
1 | NCI-H727 | 0.813 | 1.09 | 0.549 | 0.85 | 0.676 | 0.925 | 1.02 | 0.633 | 0.885 | 0.689 | 0.675 | 0.549 | 0.571 | 0.543 | 0.52 | 0.943 | 0.827 | 0.793 | 0.896 | 0.936
2 | NCI-H838 | 0.958 | 1.23 | 0.981 | 0.753 | 0.638 | 0.807 | 1.02 | 0.873 | 0.672 | 0.488 | 0.27 | 0.336 | 0.261 | 0.272 | 0.19 | 0.46 | 0.472 | 0.5 | 0.444 | 0.397
3 | NCI-H1355 | 1.03 | 1.04 | 0.985 | 0.919 | 0.873 | 1.06 | 1.13 | 1.02 | 0.97 | 0.924 | 0.538 | 0.513 | 0.557 | 0.496 | 0.501 | 0.368 | 0.36 | 0.337 | 0.404 | 0.379
4 | NCI-H1437 | 0.876 | 0.944 | 0.813 | 0.722 | 0.725 | 0.912 | 1.02 | 0.884 | 0.856 | 0.77 | 0.424 | 0.483 | 0.397 | 0.411 | 0.355 | 0.535 | 0.661 | 0.502 | 0.498 | 0.422
5 | NCI-H1650 | 0.78 | 0.9 | 0.805 | – | 0.592 | 1.01 | 0.945 | 1.17 | – | 0.94 | 0.497 | 0.359 | 0.429 | 0.323 | 0.269 | 0.502 | 0.474 | 0.513 | 0.426 | 0.47
6 | NCI-H1651 | 0.82 | 1.02 | 0.9 | 0.731 | 0.784 | 0.858 | 0.85 | 0.871 | 0.846 | 0.884 | 0.67 | 0.719 | 0.671 | 0.681 | 0.515 | 0.657 | 0.695 | 0.623 | 0.713 | 0.576
7 | NCI-H1666 | 0.678 | 0.624 | 0.611 | 0.546 | 0.493 | 0.968 | 0.951 | 0.781 | 0.596 | 0.642 | 0.606 | 0.615 | 0.514 | 0.725 | 0.362 | 0.729 | 0.749 | 0.642 | 0.666 | 0.628
8 | NCI-H1734 | 0.993 | 1.17 | 1.06 | 1.1 | 1.05 | 0.684 | 0.734 | 0.752 | 0.656 | 0.618 | 0.239 | 0.273 | 0.27 | 0.269 | 0.258 | 0.473 | 0.535 | 0.571 | 0.524 | 0.55
9 | NCI-H1755 | 1.09 | 1.08 | 1.01 | 0.961 | 0.957 | 0.873 | 0.94 | 0.889 | 0.781 | 0.777 | 0.519 | 0.533 | 0.593 | 0.472 | 0.61 | 0.682 | 0.728 | 0.721 | 0.646 | 0.707
10 | NCI-H1915 | 0.99 | 0.919 | 0.912 | 0.93 | 0.969 | 0.908 | 0.915 | 0.877 | 0.834 | 0.885 | 0.488 | 0.488 | 0.462 | 0.424 | 0.373 | 0.278 | 0.258 | 0.264 | 0.247 | 0.256
11 | NCI-H1944 | 0.815 | 0.898 | 0.782 | 0.869 | 0.792 | 0.998 | 1.11 | 1.08 | 1.08 | 1.06 | 0.238 | 0.279 | 0.247 | 0.261 | 0.243 | 0.448 | 0.474 | 0.467 | 0.432 | 0.445
12 | NCI-H1975 | 0.921 | 0.971 | 0.914 | 0.926 | 0.723 | 0.999 | 0.981 | 0.911 | 0.96 | 0.746 | 0.737 | 0.793 | 0.784 | 0.665 | 0.46 | 0.423 | 0.403 | 0.432 | 0.417 | 0.436
13 | NCI-H1993 | 0.804 | 0.91 | 0.82 | 0.889 | 0.769 | 0.908 | 0.907 | 0.774 | 0.899 | 0.846 | 0.528 | 0.615 | 0.659 | 0.595 | 0.551 | 0.624 | 0.609 | 0.56 | 0.574 | 0.605
14 | NCI-H2009 | 1.38 | 0.959 | 0.891 | 0.897 | 0.903 | 1.01 | 1.06 | 1.06 | 1.02 | 1.04 | 0.631 | 0.696 | 0.744 | 0.693 | 0.625 | 0.425 | 0.362 | 0.372 | 0.4 | 0.448
15 | NCI-H2023 | 0.855 | 0.976 | 0.781 | 0.908 | 0.761 | 0.679 | 0.766 | 0.682 | 0.585 | 0.537 | 0.377 | 0.403 | 0.368 | 0.299 | 0.229 | 0.23 | 0.259 | 0.218 | 0.234 | 0.202
16 | NCI-H2085 | 0.777 | 0.81 | 0.797 | 0.696 | 0.662 | 0.94 | 0.799 | 0.742 | 0.778 | 0.648 | 0.797 | 0.721 | 0.772 | 0.697 | 0.584 | 0.545 | 0.577 | 0.547 | 0.548 | 0.522
